Read-outs that look alike come from different tables or passages of the source.

Results on 3 compounds are retold here after patent US20050020665A1, “Pharmaceutical composition for treating multiple sclerosis” (priority 2001, published 2005).

Assay [1] concerns experimental allergic encephalomyelitis (EAE). To be noted: cited from earlier work.
Assay [2] relates to MS patients. To be noted: cited from earlier work.
The test system of assay [3] is patients having clinically active MS. Kind of assay: treatment trial of MS patients with zileuton (Zyflo Filmtab), three years, with brain nuclear magnetic resonance using Magnevist. Format: in vivo, humans. The procedure:
15 patients having clinically active MS were treated with zileuton in a treatment trial. 15 MS patients without this treatment served as a control. One tablet of Zyflo™Filmtab® was administered to each four times a day.

Assay [4] concerns MS patients. The following applies: cited from earlier work. This is another data set of the same source.
Assay [5] relates to inflammatory reactions of MS in the animal model. The following applies: cited from earlier work.
Where [6] appears, read: 15 MS patients, one Zyflo Filmtab tablet four times a day, three years, compared with 15 MS patients without this treatment.

For `Cn1cnc([N+](=O)[O-])c1Sc1ncnc2[nH]cnc12` [azothioprin], the “effect in the EAE animal test” value in assay [1] is “showed promising indications”. The “effect in the treatment of MS patients” value in assay [2] was “not convincing”.

`CC(c1cc2ccccc2s1)N(O)C(N)=O` (centres unmarked) [zileuton, 1-(1-benzo[b]thien-2-ylethyl)-1-hydroxy urea]: in assay [3] (setting [6]), the chronic progression result is on record as “significantly decreased” and the frequency of attacks entry is given as “significantly decreased”. The “new or acute centres of inflammation absorbing the contrast agent (brain nuclear magnetic resonance)” value in assay [3] (every six months, contrast agent Magnevist) was “No new or acute centres absorbing the contrast agent could be determined”.

On to `O=C(O)c1cc(/N=N/c2ccc(S(=O)(=O)Nc3ccccn3)cc2)ccc1O` [azulfidine], for which the “effect of treatment in MS patients” value was “exceptionally beneficial effect could be proven” in assay [4] (first 18 months of treatment, double blind study) and “this effect could no longer be proven” in assay [4] (three years after the end of the study). For the same compound, in assay [5], the “effect in the animal model (suppression of inflammatory reactions of MS)” value is reported as “successful in the animal model”.
